Test results reported in PMC12866788, “Alternative Pathway for Methyl Supply through the Coupling of SHMT1 and PEMT to Maintain Astrocytic Homeostasis in Parkinson's Disease” (Advanced Science, 2025).

Target: T1, SHMT1-PEMT complex (Mus musculus, UniProt P50431+Q61907)
T1 construct: native SHMT1-PEMT complex, co-immunoprecipitate / NP-40 lysate of mouse primary astrocytes; full length, untagged; direct SHMT1-PEMT contact not proven
T1 sequence (P50431 1-478): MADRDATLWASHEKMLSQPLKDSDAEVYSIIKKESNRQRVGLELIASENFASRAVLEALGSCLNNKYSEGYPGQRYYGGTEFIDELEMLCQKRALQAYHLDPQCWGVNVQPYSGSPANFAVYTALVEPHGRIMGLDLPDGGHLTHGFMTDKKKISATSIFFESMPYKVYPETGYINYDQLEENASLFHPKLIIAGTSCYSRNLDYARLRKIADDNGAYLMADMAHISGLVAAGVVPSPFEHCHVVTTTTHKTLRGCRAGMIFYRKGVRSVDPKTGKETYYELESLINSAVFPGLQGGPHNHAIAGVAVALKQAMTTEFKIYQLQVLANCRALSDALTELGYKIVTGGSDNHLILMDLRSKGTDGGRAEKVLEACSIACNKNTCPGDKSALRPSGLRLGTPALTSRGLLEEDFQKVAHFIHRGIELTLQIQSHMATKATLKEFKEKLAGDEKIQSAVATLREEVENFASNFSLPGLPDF
T1 sequence (Q61907 1-199): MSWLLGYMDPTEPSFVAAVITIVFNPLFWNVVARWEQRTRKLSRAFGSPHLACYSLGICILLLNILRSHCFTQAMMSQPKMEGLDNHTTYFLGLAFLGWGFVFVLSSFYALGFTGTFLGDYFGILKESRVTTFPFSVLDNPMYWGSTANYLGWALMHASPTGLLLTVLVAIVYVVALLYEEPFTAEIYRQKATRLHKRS
Assay: CETSA and DARTS of co-IP samples, Western blot
Type: biochemical
Details: 10 µM isoorientin; astrocytes with MPP+ 24 h; heating at 37-67 °C 3 min; protease K digestion 1:400-1:3200; either chain may hold the compound

## O=c1cc(-c2ccc(O)c(O)c2)oc2cc(O)c([C@@H]3O[C@H](CO)[C@@H](O)[C@H](O)[C@H]3O)c(O)c12 [TMA0698, Isoorientin]
  CETSA and DARTS of co-IP samples, Western blot: we found that Iso significantly promoted SHMT1 and PEMT protein stability
